≈ marks a conversion by molar mass, not a printed value. Read-outs that look alike come from different tables or passages of the source.
What was measured:
[1] = Formation constants (Kf) by UV–visible spectral displacement method, α-CD; type: physicochemical; details: UV–visible spectral displacement with MO (MO itself by direct titration), SD <10%
Experimental: (§1) Formation constant (Kf) values were calculated using a UV–visible spectral displacement method. This method implies first the characterization of the inclusion complexes between CDs and the competitor (methyl orange, MO). The results are summarized in Table 1 in comparison with values from the literature.
(§2) The UV–visible competition method with methyl orange (MO) as competitor was carried out according to the method described by Landy et al.. In order to calculate CD/PP Kf values, CD/MO inclusion complexes were firstly characterized by a direct titration method. Then, a spectral displacement method was applied by adding PP to a solution containing constant concentration of MO and CD. The addition of PP implied an absorbance increment leading to the calculation of CD/PP Kf values. Spectra were recorded between 520–530 nm for a MO concentration fixed at 0.1 mM. This wavelength range corresponds to the optimal spectral variation between the absorbance of free and complexed forms of MO. All Kf values were calculated by an algorithmic treatment applied to the first derivatives of UV spectra in order to avoid any spectral influence of diffraction phenomena. Absorption studies were performed using a UV–visible dual-beam spectrophotometer (Perkin Elmer Lambda 2S) with a 1 cm thick quartz cuvette.

[2] = Formation constants (Kf) by UV–visible spectral displacement method, β-CD; type: physicochemical; details: UV–visible spectral displacement with MO (MO itself by direct titration), SD <10%
Experimental: as §1, §2

[3] = Formation constants (Kf) by UV–visible spectral displacement method, HP-β-CD; type: physicochemical; details: UV–visible spectral displacement with MO (MO itself by direct titration), SD <10%
Experimental: as §1, §2

[4] = Formation constants (Kf) by UV–visible spectral displacement method, RAMEB; type: physicochemical; details: UV–visible spectral displacement with MO (MO itself by direct titration), SD <10%
Experimental: as §1, §2

[5] = Formation constants (Kf) by UV–visible spectral displacement method, CRYSMEB; type: physicochemical; details: UV–visible spectral displacement with MO (MO itself by direct titration), SD <10%
Experimental: as §1, §2

[6] = Experimental: (§3) Phase solubility studies were carried out according to the method described by Higuchi and Connors. Excess amount of PP was added to 1 mL of CD solution at different concentrations ranging from 0 to 10 mM. The mixtures were shaken at 25 °C for 24 h then filtered through a 0.45 μm membrane filter. The concentration of PP in the filtrate was determined spectrophotometrically at the maximum wavelength corresponding to each PP. Phase solubility diagrams were obtained by plotting the solubility of PP as a function of CD concentration. Kf value of CD/PP inclusion complex was calculated from the linear segment of the phase–solubility diagrams using the following equation: […]
(§4) where S0 is the intrinsic solubility of PP in the absence of CD and the Slope is the slope of the phase–solubility profile. The solubilizing potential of CD was evaluated by the complexation efficiency (CE) parameter. CE equal the complex to free CD concentration ratio and was calculated from the slope of the phase solubility diagram: […]
(§5) where [CD/PP] is the concentration of dissolved inclusion complex and [CD] is the concentration of dissolved free CD. The CE can be used to calculate the PP:CD ratio as follows:
(§6) The correlation between the CE and the molecular weight of CD or guest allowed the determination of the increase in formulation bulk which can be calculated using the following equation: […]
(§7) where MWCD and MWPP are the molecular weight values of CD and PP, respectively.

[7] = Phase solubility studies, β-CD
Experimental: as §3, §4, §5, §6, §7

[8] = Phase solubility studies, HP-β-CD
Experimental: as §3, §4, §5, §6, §7

[9] = Phase solubility studies, RAMEB
Experimental: as §3, §4, §5, §6, §7

[10] = Phase solubility studies, CRYSMEB
Experimental: as §3, §4, §5, §6, §7

[11] = Intrinsic solubility (S0) of PP in water; type: physicochemical; details: thermodynamic from solid, absence of CD, 25 °C
Experimental: as §3, §4

[12] = DPPH radical scavenging activity; details: for Change of DPPH radical scavenging activity upon complexation with CDs: PP in 10 mM CD solution vs water; for Kinetic behavior of reaction with DPPH•: PP with ethanolic DPPH• solution; for DPPH radical scavenging (antioxidant) activity of PP alone: absence of CD, 1 h (3, 4, 6, 7) or 15 h (1, 2, 5), 25 °C
Experimental: The 2,2-diphenyl-1-picrylhydrazyl (DPPH) radical scavenging activity of PP and their inclusion complexes was measured using the method described by Brand-Williams, Cuvelier, and Berset (1995) with some modifications. 1 mg of PP was dissolved in 50 mL of water, or 10 mM CD solution. 2 mL aliquot of the solution was vigorously mixed with 2 mL of ethanolic DPPH^• solution (0.1 mM). […]. Blank sample was prepared by mixing 2 mL of distilled water with 2 mL of DPPH^• solution. The scavenging activity was calculated using the following equation: […]
where As and A0 are the absorbance of sample and blank sample, respectively.

[13] = β-CD, cited from earlier work
[14] = HP-β-CD, cited from earlier work
[15] = parameters: method as in earlier work; details: cited from earlier work
[16] = α-CD, cited from earlier work
[17] = RAMEB, cited from earlier work
[18] = CRYSMEB, cited from earlier work

Compound	Formation constant (Kf) [1]	Formation constant (Kf) [2]	Formation constant (Kf) [3]	Formation constant (Kf) [4]	Formation constant (Kf) [5]	Change of DPPH radical scavenging activity upon complexation with CDs [12]	Kinetic behavior of reaction with DPPH• [12]	DPPH radical scavenging (antioxidant) activity of PP alone [12]	log P [15]	also measured
O=C(O)/C=C/c1ccc(O)c(O)c1 [Caffeic acid (6), caffeic acid]	1540 M⁻¹	318 M⁻¹	526 M⁻¹	991 M⁻¹	404 M⁻¹	kept unchanged	reacted rapidly	higher antioxidant activity		Increase in formulation bulk [6]: 7; Kf [6]: 1819 M⁻¹; Kf [7]: 425 M⁻¹; Increase in formulation bulk ([7]; β-CD, from CE and molecular weights): 15; Increase in formulation bulk ([8]; HP-β-CD, from CE and molecular weights): 18; Kf ([8]; HP-β-CD, from slope of phase solubility diagram and S0, 25 °C): 534 M⁻¹; Increase in formulation bulk ([9]; RAMEB, from CE and molecular weights): 13; Kf ([9]; RAMEB, from slope of phase solubility diagram and S0, 25 °C): 825 M⁻¹; Increase in formulation bulk ([10]; CRYSMEB, from CE and molecular weights): 14; Kf ([10]; CRYSMEB, from slope of phase solubility diagram and S0, 25 °C): 552 M⁻¹; solubility at 24 h [11]: 300 µg/mL (≈ 1670 µM); Formation constant (Kf) ([13]; ref 26): 278 M⁻¹; Formation constant (Kf) ([13]; ref 27): 516 M⁻¹; Formation constant (Kf) ([14]; ref 28): 279 M⁻¹
C=CCc1ccc(OC)cc1 [Estragole (2), estragole]	335 M⁻¹	987 M⁻¹	1508 M⁻¹	1916 M⁻¹	1584 M⁻¹	increase in activity	slow kinetic behavior	reacted little	2.818	Increase in formulation bulk [6]: 36; Kf [6]: 682 M⁻¹; Increase in formulation bulk [7]: 35; Kf [7]: 882 M⁻¹; Increase in formulation bulk [8]: 32; Kf [8]: 1412 M⁻¹; Increase in formulation bulk [9]: 26; Kf [9]: 1694 M⁻¹; Increase in formulation bulk [10]: 25; Kf [10]: 1512 M⁻¹
COc1cc(/C=C/C(=O)O)ccc1O [Ferulic acid (7), ferulic acid]	1769 M⁻¹	246 M⁻¹	451 M⁻¹	908 M⁻¹	474 M⁻¹	kept unchanged	reacted rapidly	higher antioxidant activity	1.249	Formation constant (Kf) ([16]; ref 29): 1162 M⁻¹; Formation constant (Kf) ([13]; ref 30): 205 M⁻¹; Formation constant (Kf) ([14]; ref 30): 590 M⁻¹
CC(O)COC[C@H]1O[C@@H]2O[C@H]3[C@H](O)[C@@H](O)[C@@H](O[C@H]4[C@H](O)[C@@H](O)[C@@H](O[C@H]5[C@H](O)[C@@H](O)[C@@H](O[C@H]6[C@H](O)[C@@H](O)[C@@H](O[C@H]7[C@H](O)[C@@H](O)[C@@H](O[C@H]8[C@H](O)[C@@H](O)[C@@H](O[C@H]1[C@H](O)[C@H]2O)O[C@@H]8COCC(C)O)O[C@@H]7COCC(C)O)O[C@@H]6COCC(C)O)O[C@@H]5COCC(C)O)O[C@@H]4COCC(C)O)O[C@@H]3COCC(C)O (stereo partly drawn) [HP-β-CD, hydroxypropyl-β-cyclodextrin]										CE mean value ([8]; HP-β-CD, mean over the studied PPs): 1.42
CN(C)c1ccc(N=Nc2ccc(S(=O)(=O)[O-])cc2)cc1.[Na+] [MO, methyl orange, reference compound]	7810 M⁻¹	2386 M⁻¹	5597 M⁻¹	15400 M⁻¹	3594 M⁻¹					
C/C=C/c1ccc(OC)cc1 [trans-Anethole (1), trans-anethole]	927 M⁻¹	542 M⁻¹	845 M⁻¹	1815 M⁻¹	1039 M⁻¹	increase in activity	slow kinetic behavior	reacted little	3.096	Formation constant (Kf) ([16]; ref 11): 1163 M⁻¹; Formation constant (Kf) ([16]; ref 23): 710 M⁻¹; Formation constant (Kf) ([13]; ref 11): 630 M⁻¹; Formation constant (Kf) ([13]; ref 23): 497 M⁻¹; Formation constant (Kf) ([14]; ref 11): 1042 M⁻¹; Formation constant (Kf) ([14]; ref 23): 981 M⁻¹; Formation constant (Kf) ([17]; ref 11): 1553 M⁻¹; Formation constant (Kf) ([17]; ref 23): 1110 M⁻¹; Formation constant (Kf) ([18]; ref 11): 740 M⁻¹; Formation constant (Kf) ([18]; ref 23): 877 M⁻¹
OC[C@H]1O[C@@H]2O[C@H]3[C@H](O)[C@@H](O)[C@@H](O[C@H]4[C@H](O)[C@@H](O)[C@@H](O[C@H]5[C@H](O)[C@@H](O)[C@@H](O[C@H]6[C@H](O)[C@@H](O)[C@@H](O[C@H]7[C@H](O)[C@@H](O)[C@@H](O[C@H]8[C@H](O)[C@@H](O)[C@@H](O[C@H]1[C@H](O)[C@H]2O)O[C@@H]8CO)O[C@@H]7CO)O[C@@H]6CO)O[C@@H]5CO)O[C@@H]4CO)O[C@@H]3CO [β-CD, β-cyclodextrin]										CE mean value [7]: 0.91
isoeugenol [Isoeugenol (3)]						kept unchanged	reacted rapidly	higher antioxidant activity		
low methylated β-cyclodextrin [CRYSMEB]										CE mean value [10]: 1.21
randomly methylated β-cyclodextrin [RAMEB]										CE mean value [9]: 1.70
